Data taken from US8334382B2, “Substituted biaryl piperazinyl-pyridine analogues” (Neurogen Corporation, priority 2004, dated 2012).

biological target: T1, human capsaicin receptor (Homo sapiens, UniProt Q8NER1); test: Calcium mobilization assay, determination of antagonist activity; assay type: cell-based; conditions: capsaicin at EC50; cells expressing human capsaicin receptor; Example 6
T1 construct: expressed in transfected cells; host or cells: HEK293, stably transfected with pBK-CMV construct
How it was run: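 HEK293 cells stably expressing full-length human TRPV1, loaded with Fluo-3 AM in KRH buffer pH 7.4, preincubated with compound (final 1-5 µM) in the dark at room temperature for 0.5-6 h, then stimulated with capsaicin at its EC50. FLIPR fluorescence gave IC50 as concentration halving the capsaicin response.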

T1 sequence (Q8NER1 whole entry): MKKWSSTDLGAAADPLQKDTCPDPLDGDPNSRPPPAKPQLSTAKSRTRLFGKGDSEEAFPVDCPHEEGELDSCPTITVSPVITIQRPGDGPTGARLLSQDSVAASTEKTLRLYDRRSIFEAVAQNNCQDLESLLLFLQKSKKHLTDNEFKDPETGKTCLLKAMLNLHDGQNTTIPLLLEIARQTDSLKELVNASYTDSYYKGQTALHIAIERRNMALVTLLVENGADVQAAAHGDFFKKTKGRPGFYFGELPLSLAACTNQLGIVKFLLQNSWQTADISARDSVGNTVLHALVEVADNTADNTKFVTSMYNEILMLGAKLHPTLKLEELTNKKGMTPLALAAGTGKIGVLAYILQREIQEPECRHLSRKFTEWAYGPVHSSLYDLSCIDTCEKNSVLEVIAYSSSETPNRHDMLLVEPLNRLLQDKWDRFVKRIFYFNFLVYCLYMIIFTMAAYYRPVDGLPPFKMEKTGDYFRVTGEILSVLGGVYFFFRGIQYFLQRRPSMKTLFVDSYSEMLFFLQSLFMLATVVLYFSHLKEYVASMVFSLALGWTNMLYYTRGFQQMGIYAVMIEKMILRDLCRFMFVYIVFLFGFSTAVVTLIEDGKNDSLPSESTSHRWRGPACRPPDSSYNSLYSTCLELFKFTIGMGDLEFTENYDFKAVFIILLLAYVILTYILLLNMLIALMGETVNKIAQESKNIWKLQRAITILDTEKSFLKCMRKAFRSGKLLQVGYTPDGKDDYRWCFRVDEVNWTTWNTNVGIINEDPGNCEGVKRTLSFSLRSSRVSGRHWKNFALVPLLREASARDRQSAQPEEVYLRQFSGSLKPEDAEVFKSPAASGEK

Row | IC50 [nM] | Compound
1 | ≤ 1000 | Cc1ccc(-c2cc(N3CCN(c4ncc(C(=O)NCCO)cc4C)C[C@H]3C)nc(N3CCCC3C)n2)cn1 (stereo partly drawn) [Example 171, N-(2-Hydroxy-ethyl)-5-methyl-6-{3-(R)-methyl-4-[6-(6-methyl-pyridin-3-yl)-2-(2-methyl-pyrrolidin-1-yl)-pyrimidin-4-yl]-piperazin-1-yl}-nicotinamide]
2 | ≤ 1000 | CCCN1CCN(c2nc(-c3ccc(F)c(Cl)c3)cc(N3CCN(c4ncc([N+](=O)[O-])cc4C)CC3)n2)CC1 [Example 14, 4-(3-Chloro-4-fluoro-phenyl)-6-[4-(3-methyl-5-nitro-pyridin-2-yl)-piperazin-l-yl]-2-(4-propyl-piperazin-1-yl)-pyrimidine]
3 | ≤ 1000 | CNCCc1cnc(N2CCN(c3cc(-c4ccc(F)c(Cl)c4)nc(N4CCC[C@H]4C)n3)[C@H](C)C2)c(Cl)c1 [Example 187, 2-[5-chloro-6-((3R)-4-{6-(3-chloro-4-fluorophenyl)-2-[(2R)-2-methylpyrrolidin-1-yl]pyrimidin-4-yl}-3-methylpiperazin-1-yl)pyridin-3-yl]-N-methylethanamine]
4 | ≤ 1000 | CCOC(=O)c1cnc(N2CCN(c3cc(-c4ccncc4)nc(N4CCCC4C)n3)[C@H](C)C2)c(C)c1 (stereo partly drawn) [Example 60, 5-Methyl-6-{3-(R)-methyl-4-[2-(2-methyl-pyrrolidin-1-yl)-6-pyridin-4-yl-pyrimidin-4-yl] -piperazin-1-yl}-nicotinic acid ethyl ester]
5 | ≤ 1000 | CCOC(=O)c1cnc(N2CCN(c3cc(-c4ccncc4)nc(N4CCCC4C)n3)CC2)c(C)c1 (centres unmarked) [Example 56, 5-Methyl-6-{4-[2-(2-methyl-pyrrolidin-1-yl)-6-pyridin-4-yl-pyrimidin-4-yl]-piperazin-1-yl}-nicotinic acid ethyl ester]
6 | ≤ 1000 | Cc1cc(C(N)=O)cnc1N1CCN(c2cc(-c3ccncc3)nc(N3CCCC3C)n2)CC1 (centres unmarked) [Example 89, 5-Methyl-6-{4-[2-(2-methyl-pyrrolidin-1-yl)-6-pyridin-4-yl-pyrimidin-4-yl]-piperazin-1-yl}-nicotinamide]
7 | ≤ 1000 | Cc1cc(C(=O)O)cnc1N1CCN(c2cc(-c3ccc(F)cc3)nc(N3CCC[C@@H]3C)n2)[C@H](C)C1 [Example 99, 6-{4-[6-(4-Fluoro-phenyl)-2-(2-(S)-methyl-pyrrolidin-1-yl)-pyrimidin-4-yl]-3-(R)-methyl-piperazin-1-yl}-5-methyl-nicotinic acid]
8 | ≤ 1000 | Cc1cc(C(=O)N(C)Cc2ccccc2)cnc1N1CCN(c2cc(-c3ccc(F)cc3)nc(N3CCCC3C)n2)CC1 (centres unmarked) [Example 121, N-benzyl-6-{4-[6-(4-fluorophenyl)-2-(2-methylpyrrolidin-1-yl)pyrimidin-4-yl]piperazin-1-yl}-N,5-dimethylnicotinamide]
9 | ≤ 1000 | CCOC(=O)c1cnc(N2CCN(c3cc(-c4ccc(F)c(Cl)c4)nc(N4CCCC4C)n3)[C@H](C)C2)c(Cl)c1 (stereo partly drawn) [Example 18, 5-Chloro-6-{4-[6-(3-chloro-4-fluoro-phenyl)-2-(2-methyl-pyrrolidin-l-yl)-pyrimidin-4-yl]-3-(R)-methyl-piperazin-1-yl}-nicotinic acid ethyl ester]
10 | ≤ 1000 | Cc1cc(C(=O)NCC2CCCO2)cnc1N1CCN(c2cc(-c3ccc(F)cc3)nc(N3CCCC3C)n2)CC1 (centres unmarked) [Example 111, 6-{4-[6-(4-fluorophenyl)-2-(2-methylpyrrolidin-1-yl)pyrimidin-4-yl]piperazin-1-yl}-5-methyl-N-(tetrahydrofuran-2-ylmethyl)nicotinamide]
11 | ≤ 1000 | CC1CCCN1c1nc(-c2ccc(F)cc2)cc(N2CCN(c3ncc(C(N)=O)cc3Cl)C[C@H]2C)n1 (stereo partly drawn) [Example 33, 5-Chloro-6-{4-[6-(4-fluoro-phenyl)-2-(2-methyl-pyrrolidin-1-yl)-pyrimidin-4-yl]-3-(R)-methyl-piperazin-1-yl}-nicotinamide]
12 | ≤ 1000 | CCOC(=O)c1cnc(N2CCN(c3cc(-c4ccccc4)nc(N4CCCC4C)n3)CC2)c(C)c1 (centres unmarked) [Example 54, 5-Methyl-6-{4-[2-(2-methyl-pyrrolidin-1-yl)-6-phenyl-pyrimidin-4-yl]-piperazin-1-yl}-nicotinic acid ethyl ester]
13 | ≤ 1000 | CC1CCCN1c1nc(-c2ccc(F)cc2)cc(N2CCN(c3ncc(C(=O)O)cc3Cl)C[C@H]2C)n1 (stereo partly drawn) [Example 29, 5-Chloro-6-{4-[6-(4-fluoro-phenyl)-2-(2-methyl-pyrrolidin-1-yl)-pyrimidin-4-yl]-3-(R)-methyl-piperazin-1-yl}-nicotinic acid]
14 | ≤ 1000 | CC1CCCN1c1nc(-c2ccc(F)c(Cl)c2)cc(N2CCN(c3ncc(CN)cc3Cl)CC2)n1 (stereo not drawn) [Example 12, C-(5-Chloro-6-{4-[6-(3-chloro-4-fluoro-phenyl)-2-(2-methyl-pyrrolidin-l-yl)-pyrimidin-4-yl]-piperazin-1-yl}-pyridin-3-yl)-methylamine]
15 | ≤ 1000 | C[C@@H]1CN(c2ncc(C(=O)N3CCC[C@H]3CO)cc2Cl)CCN1c1cc(-c2ccc(F)cc2)nc(N2CCC[C@H]2CO)n1 [Example 155, (5-Chloro-6-{4-[6-(4-fluoro-phenyl)-2-(2-(S)-hydroxymethyl-pyrrolidin-1-yl)-pyrimidin-4-yl]-3-(R)-methyl-piperazin-1-yl}-pyridin-3-yl)-(2-(S)-hydroxymethyl-pyrrolidin-1-yl)-methanone]
16 | ≤ 1000 | Cc1cc(C(=O)N2CCN(C3CCCC3)CC2)cnc1N1CCN(c2cc(-c3ccc(F)cc3)nc(N3CCCC3C)n2)CC1 (centres unmarked) [Example 133, 4-(4-{5-[(4-cyclopentylpiperazin-1-yl)carbonyl]-3-methylpyridin-2-yl}piperazin-1-yl)-6-(4-fluorophenyl)-2-(2-methylpyrrolidin-1-yl)pyrimidine]
17 | ≤ 1000 | Cc1cc(C(=O)O)cnc1N1CCN(c2cc(-c3ccccc3)nc(N3CCC[C@H]3C)n2)[C@H](C)C1 [Example 96, 5-Methyl-6-{3-(R)-methyl-4-[2-(2-(R)-methyl-pyrrolidin-1-yl)-6-phenyl-pyrimidin-4-yl]-piperazin-1-yl}-nicotinic acid]
18 | ≤ 1000 | CC1CCCN1c1nc(-c2ccc(F)c(Cl)c2)cc(N2CCN(c3nccc(C(=O)O)c3Cl)CC2)n1 (centres unmarked) [Example 7, 3-Chloro-2-{4-[6-(3-chloro-4-fluoro-phenyl)-2-(2-methyl-pyrrolidin-1-yl)-pyrimidin-4-yl]-piperazin-1-yl}-isonicotinic acid]
19 | ≤ 1000 | CCOC(=O)c1cnc(N2CCN(c3cc(-c4ccc(F)cc4)nc(N4CCCC4)n3)[C@H](C)C2)c(Cl)c1 [Example 28, 5-Chloro-6-{4-[6-(4-fluoro-phenyl)-2-pyrrolidin-1-yl-pyrimidin-4-yl]-3-(R)-methyl-piperazin-1-yl}-nicotinic acid ethyl ester]
20 | ≤ 1000 | Cc1cc(C(=O)NCCCN(C)C)cnc1N1CCN(c2cc(-c3ccc(F)cc3)nc(N3CCCC3C)n2)CC1 (centres unmarked) [Example 116, N-[3-(dimethylamino)propyl]-6-{4-[6-(4-fluorophenyl)-2-(2-methylpyrrolidin-1-yl)pyrimidin-4-yl]piperazin-1-yl}-5-methylnicotinamide]
21 | ≤ 1000 | CC1CCCN1c1nc(-c2ccc(F)c(Cl)c2)cc(N2CCN(c3ncc(C(N)=O)cc3Cl)C[C@H]2C)n1 (stereo partly drawn) [Example 24, 5-Chloro-6-{4-[6-(3-chloro-4-fluoro-phenyl)-2-(2-methyl-pyrrolidin-1-yl)-pyrimidin-4-yl]-3-(R)-methyl-piperazin-l-yl}-nicotinamide]
22 | ≤ 1000 | COC(=O)c1cnc(N2CCN(c3cc(-c4ccc(F)c(Cl)c4)nc(N4CCCC4C)n3)CC2)c(Cl)c1 (centres unmarked) [Example 20, 5-Chloro-6-{4-[6-(3-chloro-4-fluoro-phenyl)-2-(2-methyl-pyrrolidin-1-yl)-pyrimidin-4-yl]-piperazin-1-yl}-nicotinic acid methyl ester]
23 | ≤ 1000 | CCCN1CCN(c2nc(-c3ccc(F)c(Cl)c3)cc(N3CCN(c4ncc(CO)cc4Cl)CC3)n2)CC1 [Example 16, (5-Chloro-6-{4-[6-(3-chloro-4-fluoro-phenyl)-2-(4-propyl-piperazin-1-yl)-pyrimidin-4-yl]-piperazin-1-yl}-pyridin-3-yl)-methanol]
24 | ≤ 1000 | O=C(O)c1cnc(N2CCN(c3cc(-c4ccc(F)cc4)nc(N4CCC[C@H]4CO)n3)CC2)c(Cl)c1 [Example 158, 5-Chloro-6-{4-[6-(4-fluoro-phenyl)-2-(2-(S)-hydroxymethyl-pyrrolidin-1-yl)-pyrimidin-4-yl]-piperazin-1-yl}-nicotinic acid]
25 | ≤ 1000 | Cc1cc(CO)cnc1N1CCN(c2cc(-c3ccncc3)nc(N3CCCC3C)n2)CC1 (centres unmarked) [Example 73, (5-Methyl-6-{4-[2-(2-methyl-pyrrolidin-1-yl)-6-pyridin-4-yl-pyrimidin-4-yl]-piperazin-1-yl}-pyridin-3-yl)-methanol]
26 | ≤ 1000 | CC1CCCN1c1nc(-c2ccc(F)c(Cl)c2)cc(N2CCN(c3ncc(C(N)=O)cc3Cl)CC2)n1 (stereo not drawn) [Example 15, 5-Chloro-6-{4-[6-(3-chloro-4-fluoro-phenyl)-2-(2-methyl-pyrrolidin-1-yl)-pyrimidin-4-yl]-piperazin-l-yl}-nicotinamide]
27 | ≤ 1000 | CC1CCCN1c1nc(-c2ccc(F)c(Cl)c2)cc(N2CCN(c3ncc(CO)cc3Cl)C[C@H]2C)n1 (stereo partly drawn) [Example 13, (5-Chloro-6-{4-[6-(3-chloro-4-fluoro-phenyl)-2-(2-methyl-pyrrolidin-1-yl)-pyrimidin-4-yl]-3-(R)-methyl-piperazin-1-yl}-pyridin-3-yl)-methanol]
28 | ≤ 1000 | CCOC(=O)c1cnc(N2CCN(c3cc(-c4ccnc(C(C)C)c4)nc(N4CCCC4C)n3)[C@H](C)C2)c(Cl)c1 (stereo partly drawn) [Example 43, 5-Chloro-6-{4-[6-(2-isopropyl-pyridin-4-yl)-2-(2-methyl-pyrrolidin-1-yl)-pyrimidin-4-yl]-3-(R)-methyl-piperazin-1-yl}-nicotinic acid ethyl ester]
29 | ≤ 1000 | Cc1cc(CO)cnc1N1CCN(c2cc(-c3ccc(F)cc3)nc(N3CCCC3C)n2)[C@H](C)C1 (stereo partly drawn) [Example 37, (6-{4-[6-(4-Fluoro-phenyl)-2-(2-methyl-pyrrolidin-1-yl)-pyrimidin-4-yl]-3-(R)-methyl-piperazin-1-yl}-5-methyl-pyridin-3-yl)-methanol]
